Results as given in patent publication US20200399262A1, “COMPOUNDS FOR INHIBITING PROTEIN DEGRADATION AND METHODS OF USE THEREOF IN THE TREATMENT OF CANCER” (PI Therapeutics Ltd, priority 2018, published 2020).
pEC50: −log10 of the molar value.

Assays:
Assay in all cases: Cell viability panel, ATPlite 1Step
Assay type in all cases: cell-based
5637 = conditions: Bladder carcinoma, 72 h exposure, read-out: Compound EC50
Protocol: (§1) Cell viability panel studies. Cells were diluted in the corresponding ATCC recommended medium and dispensed in a 384-well plate, depending on the cell line used, at a density of 200-6400 cells per well. For each used cell line, the optimal cell density was used. Compound was serially diluted and 8 concentration (0.04-32 μM) were added to the cells for 72 h exposure. At t=end, of ATPlite 1Step™ (PerkinElmer) were used to calculate cell viability. Cell lines marked with asterisk were seeded 24 h prior to treatment in 96-well plates at the density range of 5,000-40,000 cells/well, according to duplication rate, in RPMI 1640 medium containing 10% fetal bovine serum and 2 mM L-glutamine. Compounds were diluted from 10 mM DMSO stock and treatment was applied at the range of 0.04-1 μM. Following incubation at 37° C. for 48 hours with increasing concentrations of the compounds, viability was determined with CyQUANT® Direct Assay Kit (Invitrogen). Output intensities were normalized to values after treatment with DMSO alone, and EC50 values were calculated using the absorbance measurements [time zero, (Tz), growth control, (C), plus the test growth at the four drug concentration levels (Ti)] as follows: [(Ti−Tz)/(C−Tz)]×100 for concentrations for which Ti>/=Tz; [(Ti−Tz)/Tz]×100 for concentrations for which Ti−<Tz.

A-549 = conditions: Homo sapiens, A549, Lung adenocarcinoma, 72 h exposure, read-out: Compound EC50
Protocol: as §1

A388 = conditions: Squamous cell carcinoma, 72 h exposure, read-out: Compound EC50
Protocol: as §1

AN3 CA = conditions: Homo sapiens, Endometrial adenocarcinoma, 72 h exposure, read-out: Compound EC50
Protocol: as §1

BT-20 = conditions: Homo sapiens, Invasive ductal carcinoma, 72 h exposure, read-out: Compound EC50
Protocol: as §1

C-33 A = conditions: Homo sapiens, Cervical squamous cell carcinoma, 72 h exposure, read-out: Compound EC50
Protocol: as §1

CAL 27 = conditions: Homo sapiens, Tongue squamous cell carcinoma, 72 h exposure, read-out: Compound EC50
Protocol: as §1

CCF-STTG1 = conditions: Homo sapiens, Astrocytoma, 72 h exposure, read-out: Compound EC50
Protocol: as §1

DB = conditions: Homo sapiens, Diffuse large B-cell lymphoma, 72 h exposure, read-out: Compound EC50
Protocol: as §1

DLD-1 = conditions: Homo sapiens, Colon adenocarcinoma, 72 h exposure, read-out: Compound EC50
Protocol: as §1

Daoy = conditions: Homo sapiens, Medulloblastoma, 72 h exposure, read-out: Compound EC50
Protocol: as §1

G-361 = conditions: Homo sapiens, Melanoma, 72 h exposure, read-out: Compound EC50
Protocol: as §1

HT = conditions: Homo sapiens, Diffuse large B-cell lymphoma, 72 h exposure, read-out: Compound EC50
Protocol: as §1

Hs 746T = conditions: Homo sapiens, Hs746T, Gastric adenocarcinoma, 72 h exposure, read-out: Compound EC50
Protocol: as §1

J82 = conditions: Homo sapiens, Bladder carcinoma, 72 h exposure, read-out: Compound EC50
Protocol: as §1

LS 174T = conditions: Homo sapiens, LS174T, Colon adenocarcinoma, 72 h exposure, read-out: Compound EC50
Protocol: as §1

MIA PaCa-2 = conditions: Homo sapiens, Pancreatic ductal adenocarcinoma, 72 h exposure, read-out: Compound EC50
Protocol: as §1

MOLT-4 = conditions: Homo sapiens, T acute lymphoblastic leukemia, 72 h exposure, read-out: Compound EC50
Protocol: as §1

NCI-H460 = conditions: Homo sapiens, Large cell lung carcinoma, 72 h exposure, read-out: Compound EC50
Protocol: as §1

PA-1 = conditions: Homo sapiens, Ovarian mixed germ cell tumor, 72 h exposure, read-out: Compound EC50
Protocol: as §1

RL = conditions: Homo sapiens, Diffuse large B-cell lymphoma, 72 h exposure, read-out: Compound EC50
Protocol: as §1

SHP-77 = conditions: Homo sapiens, SHP77, Small cell lung carcinoma, 72 h exposure, read-out: Compound EC50
Protocol: as §1

SUP-T1 = conditions: Homo sapiens, T lymphoblastic lymphoma, 72 h exposure, read-out: Compound EC50
Protocol: as §1

SW48 = conditions: Homo sapiens, Colon adenocarcinoma, 72 h exposure, read-out: Compound EC50
Protocol: as §1

SW620 = conditions: Homo sapiens, SW-620, Colon adenocarcinoma, 72 h exposure, read-out: Compound EC50
Protocol: as §1

SW626 = conditions: Homo sapiens, Colon adenocarcinoma, 72 h exposure, read-out: Compound EC50
Protocol: as §1

SW948 = conditions: Homo sapiens, Colon adenocarcinoma, 72 h exposure, read-out: Compound EC50
Protocol: as §1

T98G = conditions: Homo sapiens, Glioblastoma, 72 h exposure, read-out: Compound EC50
Protocol: as §1

THP-1 = conditions: Homo sapiens, Acute monocytic leukemia, 72 h exposure, read-out: Compound EC50
Protocol: as §1

TT = conditions: Homo sapiens, Hereditary thyroid gland medullary carcinoma, 72 h exposure, read-out: Compound EC50
Protocol: as §1

U-87 MG = conditions: Homo sapiens, Glioblastoma, 72 h exposure, read-out: Compound EC50
Protocol: as §1

CN(C)CCCS(=O)(=O)N1C/C(=C\c2ccc(C#N)cc2)C(=O)/C(=C/c2ccc(C#N)cc2)C1 [Compound AA]
pEC50 5637: > 6.52 | pEC50 (A-549): ≤ 6.00 | pEC50 (A388): > 6.52 | pEC50 (AN3 CA): > 6.52 | pEC50 (BT-20): ≤ 6.00 | pEC50 (C-33 A): > 6.52 | pEC50 (CAL 27): > 6.52 | pEC50 (CCF-STTG1): > 6.52 | pEC50 (DB): > 6.52 | pEC50 (DLD-1): > 6.52 | pEC50 (Daoy): > 6.52 | pEC50 (G-361): > 6.52 | pEC50 (HT): > 6.52 | pEC50 (Hs 746T): > 6.52 | pEC50 (J82): 6.00 to 6.52 | pEC50 (LS 174T): > 6.52 | pEC50 (MIA PaCa-2): 6.00 to 6.52 | pEC50 (MOLT-4): > 6.52 | pEC50 (NCI-H460): > 6.52 | pEC50 (PA-1): > 6.52 | pEC50 (RL): > 6.52 | pEC50 (SHP-77): 6.00 to 6.52 | pEC50 (SUP-T1): > 6.52 | pEC50 (SW48): 6.00 to 6.52 | pEC50 (SW620): > 6.52 | pEC50 (SW626): > 6.52 | pEC50 (SW948): > 6.52 | pEC50 (T98G): 6.00 to 6.52 | pEC50 (THP-1): 6.00 to 6.52 | pEC50 (TT): 6.00 to 6.52 | pEC50 (U-87 MG): > 6.52
